Source: patent publication US8178534B2, “cMET inhibitors” (Takeda Pharmaceutical Company Limited, priority 2008, dated 2012)

Columns and labels:
[1] = biological target: T1, cMET enzyme (amino acids 1023-1360) (Homo sapiens, UniProt P08581); assay: Determination of inhibition of cMET (capillary electrophoresis, phosphorylated peptide product); type: biochemical; conditions: 1.2 nM cMET, 50 μM ATP, 2 μM FL-2 peptide, 2 hours room temperature
T1 construct: The cMET enzyme (amino acids 1023-1360) nominally at 24 μM was held at −80° C. until use; His tag (N, cleaved yes); made in house; host or cells: Sf9 cells
T1 sequence (P08581 1023-1360): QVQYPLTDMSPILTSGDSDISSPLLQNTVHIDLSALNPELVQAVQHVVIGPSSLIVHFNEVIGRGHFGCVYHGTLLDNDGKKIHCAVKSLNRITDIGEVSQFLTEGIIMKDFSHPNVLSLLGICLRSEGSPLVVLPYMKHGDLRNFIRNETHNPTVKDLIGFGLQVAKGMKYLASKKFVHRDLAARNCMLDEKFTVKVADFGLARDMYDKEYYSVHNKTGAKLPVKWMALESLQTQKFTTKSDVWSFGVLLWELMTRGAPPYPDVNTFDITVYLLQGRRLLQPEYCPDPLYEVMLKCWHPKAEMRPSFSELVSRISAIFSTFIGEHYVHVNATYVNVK

EBC1 = assay: Inhibition of cell viability (MTS), EBC1; type: cell-based; conditions: Homo sapiens, EBC-1, 96 h, EBC1 cells, 96 hours incubation
How it was run: (§1)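 Cells seeded at 2,000-7,500/well, attached ~24 h, then treated in duplicate with 1:2.5 serial dilutions at 0.5% final DMSO. Viability by MTS; EC50 from non-linear fit after background correction and normalisation to DMSO. MKN45 and EBC1 are cMET-dependent; A549 serves as negative control.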

A549 = assay: Inhibition of cell viability (MTS), A549 (negative control line); type: cell-based; conditions: Homo sapiens, A549, 96 h, A549 cells (negative control), 96 hours incubation
How it was run: as §1

MKN45 = assay: Inhibition of cell viability (MTS), MKN45; type: cell-based; conditions: Homo sapiens, MKN-45, 96 h, MKN45 cells, 96 hours incubation
How it was run: as §1

IC50 [1]	EC50 (A549)	EC50 (MKN45)	SMILES	EC50 (EBC1)
< 30 nM	> 50000 nM	< 30 nM	N#Cc1cccc(-c2ccc3nnc(C(F)(F)c4ccc5nc(NC(=O)C6CC6)cn5n4)n3c2)c1 [Compound 82, N-(6-((6-(3-cyanophenyl)-[1,2,4]triazolo[4,3-a]pyridin-3-yl)difluoromethyl)imidazo[1,2-b]pyridazin-2-yl)cyclopropanecarboxamide]	< 30 nM
< 30 nM	> 50000 nM	< 30 nM	N#Cc1ccc(-c2ccc3nnc(C(F)(F)c4ccc5nc(NC(=O)C6CC6)cn5n4)n3c2)cc1 [Compound 83, N-(6-((6-(4-cyanophenyl)-[1,2,4]triazolo[4,3-a]pyridin-3-yl)difluoromethyl)imidazo[1,2-b]pyridazin-2-yl)cyclopropanecarboxamide]	< 30 nM
< 30 nM	> 50000 nM	< 30 nM	Cc1csc(-c2ccc3nnc(C(F)(F)c4ccc5nc(NC(=O)C6CC6)cn5n4)n3c2)c1 [Compound 84, N-(6-(difluoro(6-(4-methylthiophen-2-yl)-[1,2,4]triazolo[4,3-a]pyridin-3-yl)methyl)imidazo[1,2-b]pyridazin-2-yl)cyclopropanecarboxamide]	< 30 nM
< 30 nM	> 50000 nM	< 30 nM	CS(=O)(=O)c1ccc(-c2ccc3nnc(C(F)(F)c4ccc5nc(NC(=O)C6CC6)cn5n4)n3c2)cc1 [Compound 85, N-(6-(difluoro(6-(4-(methylsulfonyl)phenyl)-[1,2,4]triazolo[4,3-a]pyridin-3-yl)methyl)imidazo[1,2-b]pyridazin-2-yl)cyclopropanecarboxamide]	< 30 nM
30 to 59 nM	> 50000 nM	< 30 nM	COc1ccc(-c2ccc3nnc(C(F)(F)c4ccc5nc(NC(=O)C6CC6)cn5n4)n3c2)cn1 [Compound 86, N-(6-(difluoro(6-(6-methoxypyridin-3-yl)-[1,2,4]triazolo[4,3-a]pyridin-3-yl)methyl)imidazo[1,2-b]pyridazin-2-yl)cyclopropanecarboxamide]	< 30 nM
100 to 249 nM	> 50000 nM	30 to 59 nM	O=C(Nc1cn2nc(C(F)(F)c3nnc4ccc(-c5cncnc5)cn34)ccc2n1)C1CC1 [Compound 87, N-(6-(difluoro(6-(pyrimidin-5-yl)-[1,2,4]triazolo[4,3-a]pyridin-3-yl)methyl)imidazo[1,2-b]pyridazin-2-yl)cyclopropanecarboxamide]	30 to 59 nM
< 30 nM	> 50000 nM	< 30 nM	CS(=O)(=O)c1cccc(-c2ccc3nnc(C(F)(F)c4ccc5nc(NC(=O)C6CC6)cn5n4)n3c2)c1 [Compound 88, N-(6-(difluoro(6-(3-(methylsulfonyl)phenyl)-[1,2,4]triazolo[4,3-a]pyridin-3-yl)methyl)imidazo[1,2-b]pyridazin-2-yl)cyclopropanecarboxamide]	< 30 nM
< 30 nM	> 50000 nM	< 30 nM	NC(=O)c1cccc(-c2ccc3nnc(C(F)(F)c4ccc5nc(NC(=O)C6CC6)cn5n4)n3c2)c1 [Compound 90, 3-(3-((2-(cyclopropanecarboxamido)imidazo[1,2-b]pyridazin-6-yl)difluoromethyl)-[1,2,4]triazolo[4,3-a]pyridin-6-yl)benzamide]	< 30 nM
< 30 nM	> 50000 nM	< 30 nM	COCCOc1ccc(-c2ccc3nnc(C(F)(F)c4ccc5nc(NC(=O)C6CC6)cn5n4)n3c2)cc1 [Compound 91, N-(6-(difluoro(6-(4-(2-methoxyethoxy)phenyl)-[1,2,4]triazolo[4,3-a]pyridin-3-yl)methyl)imidazo[1,2-b]pyridazin-2-yl)cyclopropanecarboxamide]	< 30 nM
